Experiment [1] has as its target T1, intracellular PLA2 (cytosolic PLA2, cPLA2) (Homo sapiens, UniProt P47712).
T1 sequence (P47712 1-749): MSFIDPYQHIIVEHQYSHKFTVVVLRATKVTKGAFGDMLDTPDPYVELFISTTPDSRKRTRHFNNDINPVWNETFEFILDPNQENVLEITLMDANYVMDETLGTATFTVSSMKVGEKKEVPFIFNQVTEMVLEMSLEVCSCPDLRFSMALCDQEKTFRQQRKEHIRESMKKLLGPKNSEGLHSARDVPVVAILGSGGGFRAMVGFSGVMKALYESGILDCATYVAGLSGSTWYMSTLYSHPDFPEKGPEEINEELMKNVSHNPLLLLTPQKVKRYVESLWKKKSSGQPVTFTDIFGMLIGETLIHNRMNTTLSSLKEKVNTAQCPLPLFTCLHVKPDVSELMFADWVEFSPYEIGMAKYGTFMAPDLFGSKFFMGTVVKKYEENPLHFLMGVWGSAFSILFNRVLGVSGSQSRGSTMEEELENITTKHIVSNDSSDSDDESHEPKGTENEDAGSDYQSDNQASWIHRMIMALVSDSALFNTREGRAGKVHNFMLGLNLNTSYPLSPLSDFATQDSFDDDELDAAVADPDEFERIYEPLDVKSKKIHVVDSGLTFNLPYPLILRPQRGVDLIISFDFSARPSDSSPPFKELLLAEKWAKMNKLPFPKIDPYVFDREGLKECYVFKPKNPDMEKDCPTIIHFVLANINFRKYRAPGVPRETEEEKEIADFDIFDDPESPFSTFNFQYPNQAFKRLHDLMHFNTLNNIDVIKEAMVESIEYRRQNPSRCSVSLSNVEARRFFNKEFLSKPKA
Nature of the experiment: Intracellular PLA2 (cPLA2) inhibitory activity (14C-arachidonyl phosphatidylcholine substrate). The settings on record: 2 μM radiolabelled phosphatidylcholine, 1 μM dioleoylglycerol, 1 mM CaCl2, pH 7.4; read-out: c-PLA2 Inhibition IC50. Type of experiment: biochemical. The method in brief:
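Sonicated vesicles carrying 2 μM 1-palmitoyl-2-[14C]arachidonyl-phosphatidylcholine with 1 μM dioleoylglycerol served as substrate. Buffer: 50 mM Hepes pH 7.4, 150 mM NaCl, 1 mM CaCl2, 2 mM DTT, 0.1 mg/ml BSA. IC50 values were derived.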

Experiment [2] concerns adjuvant arthritis. Nature of the experiment: Adjuvant arthritis in rats (Mycobacterium butyricum), foot edema volume. Particulars: rat, 10 mg/kg P.O. daily, 17-18 days after adjuvant; *P < 0.05 (Examples 1, 69), **P < 0.01 (Examples 2, 23, 25) to vehicle control; Example 29 unmarked. The experiment is classed as in vivo, Crj/LEW male rat. On the procedure: Adjuvant arthritis was induced by subcutaneously administering a suspension of 0.5 mg of Mycobacterium butyricum (Difco) in 0.05 ml of liquid paraffin to the pad of left foot of Crj/LEW male rat of 7-8 weeks age weighing 150-170 g. After administering the adjuvant, the volume of edema of both feet was daily measured by a plethysmometer. The adjuvant had been administered, and since the following day, a suspension of the test compound in 0.6% arabic gum was orally administered every day, and 17-18 days after administering the adjuvant, the volume of edema of the foot and that of foot to which no adjuvant had been administered were compared with each other. Volume of the edema in control group was defined as 100%, which value was obtained by subtracting the volume of foot of normal rat (1.2 ml) from the volume measured, and inhibitory percent obtained by using the inhibitor was defined as inhibitory rate. Using the inhibitory rate, effectiveness was determined by Student's-t assay.

Experiment [3] has as its target T2, Human secretory PLA2 (Homo sapiens, UniProt P14555).
T2 sequence (P14555 21-144): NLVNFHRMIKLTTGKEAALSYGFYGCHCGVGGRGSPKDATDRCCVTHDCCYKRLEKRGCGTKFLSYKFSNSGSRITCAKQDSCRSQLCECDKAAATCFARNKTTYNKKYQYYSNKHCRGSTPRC
The experiment can be described thus: Secretory PLA2 inhibitory activity (diheptanoyl thio PC substrate, absorbance at 405 nm). Particulars: diheptanoyl thio PC 1 mM, Triton X100 0.3 mM, pH 7.3, CaCl2 10 mM, 30 minutes, read-out: s-PLA2 Inhibition IC50. Type of experiment: biochemical. The method in brief:
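Diheptanoyl thio-PC (1 mM) with Triton X100 (0.3 mM) and DTNB (125 μM) in Tris 25 mM pH 7.3, CaCl2 10 mM, KCl 100 mM, BSA 1.0 mg/ml. Absorbance change at 405 nm read at 30 min; percent inhibition corrected for no-enzyme blanks, IC50 from log-concentration plot.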

Here are results for 17 molecules from patent US5534533A, “Carboxylate derivatives exhibiting phospholipase A2 inhibitory activity” (Shionogi & Co., Ltd., priority 1993, dated 1996).

For orientation: IC50 means the concentration needed to halve the response being measured.

As to `COc1c(C)c(OC(=O)c2c(C)c(C)c(OCCCOc3ccc(C(F)(F)F)cc3)c(C)c2OC)c(C)c(C)c1C(=O)O` [Example 1, 4-[4-[3-(4-Trifluoromethylphenoxy)propyloxy]-2-methoxy-3,5,6-trimethylphenylcarboxy]-2-methoxy-3,5,6-trimethylbenzoic acid], the values for the IC50 in experiment [1] and in experiment [3] were 20 µM and 21 µM, respectively. In experiment [2], the “Inhibition % (To Nontreated Foot), edema volume” value (from here on “Inhibition %”) was found to be 43.4%.
Regarding `COc1c(C)c(OC(=O)c2c(C)c(C)c(OCCCOc3ccc(F)cc3)c(C)c2OC)c(C)c(C)c1C(=O)O` [Example 2, 4-[4-[3-(4-Fluorophenoxy)propyloxy]-2-methoxy-3,5,6-trimethylphenylcarboxy]-2-methoxy-3,5,6-trimethylbenzoic acid], the values for the IC50 in experiment [1] and in experiment [3] were 9 µM and 18 µM, respectively. Also, in experiment [2], the “Inhibition %” value was 52.3%.
`COc1c(C)c(OC(=O)c2c(C)c(C)c(OCCCOc3ccc(Cl)cc3)c(C)c2OC)c(C)c(C)c1C(=O)O` [Example 23, 4-{4-[3-(4-Chlorophenoxy)propoxy]-2-methoxy-3,5,6-trimethylbenzoyloxy}-2-methoxy-3,5,6-trimethylbenzoic Acid]: the IC50 turned out to be 4 µM in experiment [1] and 9.4 µM in experiment [3]. In addition, the “Inhibition %” value in experiment [2] stood at 66.0%.
With `COc1c(C)c(OC(=O)c2c(C)c(C)c(OCCCOc3ccc(Br)cc3)c(C)c2OC)c(C)c(C)c1C(=O)O` [Example 25, 4-{4-[3-(4-Bromophenoxy)propoxy]-2-methoxy-3,5,6-trimethylbenzoyloxy}-2-methoxy-3,5,6-trimethylbenzoic Acid], the IC50 amounted to 13 µM in experiment [1] and 4.6 µM in experiment [3]. The “Inhibition %” value in experiment [2] was 66.0%.
In the same order, the values of `COc1c(C)c(OC(=O)c2c(C)c(C)c(OCCCOc3ccc(C)cc3)c(C)c2OC)c(C)c(C)c1C(=O)O` [Example 29, 4-{4-[3-(4-Methylphenoxy)propoxy]-2-methoxy-3,5,6-trimethylbenzoyloxy}-2-methoxy-3,5,6-trimethylbenzoic Acid] are 8.5 µM, 12 µM and 33.1%.
For `COc1c(C)c(OC(=O)c2c(C)c(C)c(OCCCN(S(C)(=O)=O)S(=O)(=O)c3ccc(F)cc3)c(C)c2OC)c(C)c(C)c1C(=O)O` [Example 57, 4-{4-[3-Methylsulfonyl-(4-fluorophenyl)sulfonylaminopropoxy]-2-methoxy-3,5,6-trimethylbenzoyloxy}-2-methoxy-3,5,6-trimethylbenzoic Acid], the IC50 was determined as 16 µM in experiment [1] and 5.7 µM in experiment [3].
With `COc1c(C)c(OC(=O)c2c(C)c(C)c(OCCCN(C)S(=O)(=O)c3ccc(F)cc3)c(C)c2OC)c(C)c(C)c1C(=O)O` [Example 58, 4-{4-[3-Methyl-(4-fluorophenyl)sulfonylaminopropoxy]-2-methoxy-3,5,6-trimethylbenzoyloxy}-2-methoxy-3,5,6-trimethylbenzoic Acid], the IC50 in experiment [1] came out at 26 µM; in experiment [3] it was 5.3 µM.
Taken in the same sequence, the figures for `COc1c(C)c(OC(=O)c2c(C)c(C)c(OCCCN(C(=O)OC(C)(C)C)S(C)(=O)=O)c(C)c2OC)c(C)c(C)c1C(=O)O` [Example 59, 4-[4-(3-t-Butoxycarbonylmethylsulfonylaminopropoxy)-2-methoxy-3,5,6-trimethylbenzoyloxy]-2-methoxy-3,5,6-trimethylbenzoic Acid] were above 50 µM and 11 µM.
In the same order, the values of `COc1c(C)c(OC(=O)c2c(C)c(C)c(OCCCN(S(C)(=O)=O)S(C)(=O)=O)c(C)c2OC)c(C)c(C)c1C(=O)O` [Example 60, 4-[4-(3-bis-Methylsulfonylaminopropoxy)-2-methoxy-3,5,6-trimethylbenzoyloxy]-2-methoxy-3,5,6-trimethylbenzoic Acid] are above 50 µM and 28 µM.
Turning to `COc1c(C)c(OC(=O)c2c(C)c(C)c(OCCCNC(=O)c3ccccc3)c(C)c2OC)c(C)c(C)c1C(=O)O` [Example 61, 4-[4-(3-Benzoylaminopropoxy)-2-methoxy-3,5,6-trimethylbenzoyloxy}-2-methoxy-3,5,6-trimethylbenzoic Acid], the IC50 was above 50 µM in experiment [1] and 33 µM in experiment [3].
As for `COc1c(C)c(OC(=O)c2c(C)c(C)c(OCCCN(C(=O)c3ccccc3)C(=O)c3ccccc3)c(C)c2OC)c(C)c(C)c1C(=O)O` [Example 62, 4-[4-(3-Dibenzoylaminopropoxy)-2-methoxy-3,5,6-trimethylbenzoyloxy}-2-methoxy-3,5,6-trimethylbenzoic Acid], the results for the IC50 in experiment [1] and in experiment [3] were 9.5 µM and 3.8 µM, respectively.
For `COc1c(C)c(OC(=O)c2c(C)c(C)c(OCCCN(Cc3ccccc3)Cc3ccccc3)c(C)c2OC)c(C)c(C)c1C(=O)O` [Example 63, 4-{4-[3-(bis-Benzylamino)propoxy]-2-methoxy-3,5,6-trimethylbenzoyloxy}-2-methoxy-3,5,6-trimethylbenzoic Acid], the IC50 in experiment [1] is 2.5 µM; in experiment [3], 12 µM.
In the case of `COc1c(C)c(OC(=O)c2c(C)c(C)c(OCCCN3C(=O)c4ccccc4C3=O)c(C)c2OC)c(C)c(C)c1C(=O)O` [Example 64, 4-{4-[3-(1,3-Dioxo-1,3-dihydroisoindol-2-yl)-propoxy]-2-methoxy-3,5,6-trimethylbenzoyloxy}-2-methoxy-3,5,6-trimethylbenzoic Acid], the IC50 in experiment [1] stood at 25 µM; in experiment [3], 6.4 µM.
In the same order, the values of `COc1c(C)c(OC(=O)c2c(C)c(C)c(OCCCN3C(=O)c4ccccc4S3(=O)=O)c(C)c2OC)c(C)c(C)c1C(=O)O` [Example 65, 4-{4-[3-(1, 1 -Dihydroxy-3-oxo-3H-benzo[d]-isothiazole-2-yl)propoxy]-2-methoxy-3,5,6-trimethylbenzoyloxy}-2-methoxy-3,5,6-trimethylbenzoic Acid] are 21 µM and 6.7 µM.
`COc1c(C)c(OC(=O)c2c(C)c(C)c(OCCCN3CCC(=C(c4ccccc4)c4ccccc4)CC3)c(C)c2OC)c(C)c(C)c1C(=O)O` [Example 66, 4-{4-[3-(4-Benzhydrylidenepiperidin-1-yl)-propoxy]-2-methoxy-3,5,6-trimethylbenzoyloxy}-2-methoxy-3,5,6-trimethylbenzoic Acid]: the values for the IC50 in experiment [1] and in experiment [3] were 6.8 µM and 18 µM, respectively.
Taken in the same sequence, the figures for `COc1c(C)c(OC(=O)c2c(C)c(C)c(OCCCN3CCN(C(c4ccccc4)c4ccccc4)CC3)c(C)c2OC)c(C)c(C)c1C(=O)O` [Example 67, 4-{4-[3-(Di-Phenylmethylpiperazin-1-yl)propoxy]-2-methoxy-3,5,6-trimethylbenzoyloxy}-2-methoxy-3,5,6-trimethylbenzoic Acid] were 5.1 µM and 17 µM.
As to `COc1c(C)c(OC(=O)c2c(C)c(C)c(OCCCN3CCN(C(c4ccc(F)cc4)c4ccc(F)cc4)CC3)c(C)c2OC)c(C)c(C)c1C(=O)O` [Example 68, 4-{4-[3-(Di-4-Fluorophenylmethylpiperazin-1-yl)-propoxy]-2-methoxy-3,5,6-trimethylbenzoyloxy}-2-methoxy-3,5,6-trimethylbenzoic Acid], the results for the IC50 in experiment [1] and in experiment [3] were 11 µM and 17 µM, respectively.
